For one data set, the system named is p42/44 MAPK. Description: Activation of p42/44 MAPK in goblet cells, Western blot (Example 2). The class given is cell-based, rat. The note with it: 5 minutes, phospho-MAPK relative to actin. On the procedure: The activation of p42/44 MAPK was examined using Western blot techniques. Goblet cells were serum starved in serum-free RPMI for 4-6 hrs prior to the addition of PMA (100 nM), NGF (1 or 10 nM), or MIM-D3 (10 or 50 μM) for 5 minutes at 37° C. After, cells were rinsed once in cold PBS, scraped in 100 μL of 1×SDS-PAGE sample buffer [62.5 mM Tris-HCl pH 6.8, 10% glycerol, 2% SDS, 5% β-mercaptoethanol, 0.02 mg/mL bromophenol blue] and sonicated for 20 minutes. The homogenates were centrifuged at 14,900 g for 15 min at 4° C. Proteins in a […] of the supernatant were separated by SDS-PAGE (8% acrylamide gels) and transferred to nitrocellulose membranes. The membranes were blocked for 2 hours in 5% non-fat dried milk in buffer containing 20 mM Tris-HCl, pH 8.0, 150 mM NaCl, and 0.01% Tween-20 (TBST). The blots were then probed with an antibody directed against the phosphorylated form of MAPK1/2 (Calbiochem, San Diego, Calif.) at 0.1 μg/mL in TBST containing 5% BSA overnight at 4° C., followed by a 1 hour incubation in HRP-conjugated secondary anti-mouse antibody (Sigma, St. Louis, Mo.) at room temperature in TBST containing 5% non-fat dried milk. Immunoreactive bands were visualized using the enhanced chemiluminescence method (Perkin Elmer, Waltham, Mass.). The blots were stripped at 55° C. for 30 minutes in stripping buffer [62.5 mM Tris-HCl pH 6.8, 2% SDS, 0.1M β-mercaptoethanol] followed by re-probing with an antibody directed against actin (1:5000 dilution, Sigma, St. Louis, Mo.) in TBST containing 5% non-fat dried milk and incubation in HRP-conjugated secondary anti-rabbit antibody. The immunoreactive bands were digitally scanned on an EPSON scanner and analyzed using NIH ImageJ v1.38x. The amount of phosphorylated MAPK in each sample was standardized to the amount of total actin protein in the sample.
To determine if compound D3 and NGF induced glycoconjugates secretion via activation of the MAPK pathway, cultured goblet cells from 3 independent rats were stimulated by 10 and 50 μM compound D3, 1 and 10 nM NGF or PMA (100 nM, the positive control) for 5 minutes and MAPK activity was measured by western blot analysis. A representative western blot from 3 independent rat goblet cell cultures is shown in FIG. 9, and the quantification is shown in FIG. 10. There was a statistically significant effect of treatment on MAPK activation (P<0.0001). Compound D3 increased MAPK activity above basal by 2.5±0.3 fold at 10 μM and 2.2±0.5 fold at 50 μM and NGF increased MAPK activity by 2.8±0.5 at 1 nM (P<0.05) and 1.7±0.2 at 10 nM.

In data set [1] the test system is Scopolamine Induced Rat Dry Eye Model. Briefly: Scopolamine induced rat dry eye model, tear break-up time (Example 5). The format is in vivo. Particulars: for Tear Break-Up Time: ± SD. On the procedure: (§1) Dry eye was induced using scopolamine hydrobromide (Sigma-Aldrich, St. Louis, Mo.), which was continuously and systemically delivered to the animals via an osmotic pump (2ML4 Alzet®; CedarLane, Burlington, Ontario) filled with scopolamine and implanted subcutaneously in the mid dorsal area between the scapulae. Scopolamine was delivered for a twenty-eight day period at 12.5 mg/day, which translated to 30.0±1.5 mg/kg via osmotic pump.
(§2) Treatments for G2-G6 continued daily for seventeen days (up to an including day twenty-one). Thereafter, treatments were terminated but the study continued for another week. During treatment, each animal was anesthetized in an isoflurane chamber. Once asleep, each animal received a 5 μL topical instillation of test article into the lower conjunctival sac of both eyes using a calibrated micropipette. If a clinical endpoint was also being tested, the test article was topically instilled at the end of the testing.
Tear break-up times were tested on day 13 (after 8 daily treatments), day 21 (after 16 daily treatments), and day 28 (after treatment was stopped for 7 days). TBUT was evaluated by instillation of 10 μL sodium fluorescein solution (0.2% in sterile saline) in the upper conjunctival sac of the anaesthetized animal. The lids were blinked manually to distribute the fluorescein with the tear film. Under the cobalt blue light of a portable slit lamp ophthalmoscope (Reichert Ophthalmic Instruments, Depew, N.Y.), the eye was held open and the time until one or more black streaks appeared in the precorneal tear film was recorded. For each eye, a minimum of triplicate readings were made with fresh fluorescein solution.

For data set [2] the test system is unchanged. Description: Scopolamine induced rat dry eye model, Schirmer test (Example 5). The format is in vivo. The note with it: ± SD. On the procedure:
as §1, §2
Tear production was monitored using the Schirmer test on days 5, 7, 14, 20 and 29 post induction of dry eye. Tear production was measured with Zone-Quick standardized phenol-red threads (FCI Ophthalmics, Marshfield Hills, Mass.) on animals lightly sedated with Isoflurane. The threads were inserted in the lateral lower canthus and left in place for thirty seconds. The length of the stained moistened portion of the thread was measured in millimeters, using the scale provided with the threads to an accuracy of 1 mm.

Data set [3] can be described thus: Scopolamine induced rat dry eye model, body weights (Example 5). The class given is in vivo. Particulars: ± SD. The protocol:
After the surgery and again the next day, the animals were subcutaneously injected with Caprofen (0.5 mg/100 g) a non-steroidal anti-inflammatory drug and potent, long-acting analgesic in rodents. Animals were weighed prior to pump implantation on Day−1, and then once a week for four weeks. This dosing regimen was reported to induce dry eye in rats (Viau S et al., “Time course of ocular surface and lacrimal gland changes in a new scopolamine-induced dry eye model,” Graefes Arch Clin Exp Ophthalmol., 246:857-867 (2008), the entire content of which is incorporated herein by reference).
There were no mortalities. […] Conjunctival congestion and conjunctival bloody discharge usually resolved the next day, but conjunctival swelling continued throughout the study. Pre-treatment, mean body weight was approximately 400 g, and was not statistically different among groups (p=0.3927) (Table 10). Mean body weight in the untreated control groups (G1) increased to approximately 575 g throughout the study. In the five groups receiving scopolamine (G2-G6), mean body weight increased to approximately 425 to 450 g. There was a statistically significant effect of treatment to decrease body weight starting on Day 14, continuing through Day 28 (p<0.0001 to 0.0426) (FIG. 24).

Marks after values point to notes of the source that are not given here.

On to `NCCCC[C@@H]1NC(=O)[C@H](CCC(=O)O)NC(=O)c2cc([N+](=O)[O-])ccc2OCCC(C(=O)NCC(=O)O)NC1=O` (stereo partly shown) [Compound D3], for which the “MAPK activity above basal” value in the data set with p42/44 MAPK (10 μM) was 2.5±0.3 fold; in the data set on p42/44 MAPK (50 μM) it was 2.2±0.5 fold. The “Tear Break-Up Time” value was 4.5 ± 1.7^b seconds in data set [1] (0.4% topical 1× daily Days 5-21, Day 13); 4.4 ± 1.7 s in data set [1] (0.4% topical 1× daily Days 5-21, Day 21); 4.3 ± 0.8 s in data set [1] (0.4% topical 1× daily Days 5-21, Day 28 (7 days after treatment stopped)); 5.1 ± 1.9 s in data set [1] (1.0% topical 1× daily Days 5-21, Day 21); 6.4 ± 1.2 s in data set [1] (1.0% topical 1× daily Days 5-21, Day 28 (7 days after treatment stopped)); 7.0 ± 2.3 s in data set [1] (2.5% topical 1× daily Days 5-21, Day 13). Further, the “Tear Break-Up Time” value was determined as 5.8 ± 2.1 s in data set [1] (2.5% topical 1× daily Days 5-21, Day 21) and 5.0 ± 1.3 s in data set [1] (2.5% topical 1× daily Days 5-21, Day 28 (7 days after treatment stopped)). In addition, the “changes in TBUT at Day 28 as compared to Day 13 (in words)” value in data set [1] (1% dose vs untreated and saline control groups) is “statistically significantly improved TBUT”. The “Schirmer's Test” value in data set [2] (1.0% topical 1× daily Days 5-21, Day 20) was found to be 6.8 ± 0.8 mm; in data set [2] (2.5% topical 1× daily Days 5-21, Day 7), 9.1 ± 1.9 mm; in data set [2] (2.5% topical 1× daily Days 5-21, Day 14) it was 9.4 ± 1.4 mm.

Consider “NGF: nerve growth factor (recombinant human), positive control”, for which the “MAPK activity above basal” value was 2.8±0.5 fold with p42/44 MAPK (1 nM) and 1.7±0.2 fold with p42/44 MAPK (10 nM). Besides, the “Tear Break-Up Time” value stood at 5.2 ± 1.6 s in data set [1] (0.00053% topical 1× daily Days 5-21, Day 13); 4.7 ± 0.8 s in data set [1] (0.00053% topical 1× daily Days 5-21, Day 21); 4.2 ± 0.8 s in data set [1] (0.00053% topical 1× daily Days 5-21, Day 28 (7 days after treatment stopped)). The “Schirmer's Test” value in data set [2] (0.00053% topical 1× daily Days 5-21, Day 5 (test before first instillation)) was 9.2 ± 2.5 mm; in data set [2] (0.00053% topical 1× daily Days 5-21, Day 7), 7.8 ± 1.4 mm; in data set [2] (0.00053% topical 1× daily Days 5-21, Day 14) it was 8.6 ± 2.1 mm; in data set [2] (0.00053% topical 1× daily Days 5-21, Day 29 (after treatment stopped)) it was 7.5 ± 2.5 mm. Moreover, the “Body Weights” value was found to be 417 ± 16 g in data set [3] (0.00053% group, Day −1, pre-treatment); 396 ± 20 g in data set [3] (scopolamine + 0.00053% topical 1× daily Days 5-21, Day 7); 399 ± 18 g in data set [3] (scopolamine + 0.00053% topical 1× daily Days 5-21, Day 14); 417 ± 16 g in data set [3] (scopolamine + 0.00053% topical 1× daily Days 5-21, Day 20); 438 ± 22 g in data set [3] (scopolamine + 0.00053% topical 1× daily Days 5-21, Day 29).

These data come from patent publication US9707267B2, “Beta-turn peptidomimetic cyclic compounds for treating dry eye” (Mimetogen Pharmaceuticals, Inc., priority 2008, dated 2017).
